Our source for the AC50 values is ChEMBL document CHEMBL5291721, “A preclinical secondary pharmacology resource illuminates target-adverse drug reaction associations of marketed drugs” (Nat Commun, 2023).

SMILES strings stand for the structures.

Some targets named below: Vasopressin V2 receptor (Homo sapiens, UniProt P30518); Melanocortin receptor 3 (Homo sapiens, UniProt P41968); Motilin receptor (Homo sapiens, UniProt O43193); D(3) dopamine receptor (Homo sapiens, UniProt P35462).
Experiment [1] concerns the target T1, Alpha-2C adrenergic receptor (Homo sapiens, UniProt P18825).
T1 sequence (P18825 whole entry): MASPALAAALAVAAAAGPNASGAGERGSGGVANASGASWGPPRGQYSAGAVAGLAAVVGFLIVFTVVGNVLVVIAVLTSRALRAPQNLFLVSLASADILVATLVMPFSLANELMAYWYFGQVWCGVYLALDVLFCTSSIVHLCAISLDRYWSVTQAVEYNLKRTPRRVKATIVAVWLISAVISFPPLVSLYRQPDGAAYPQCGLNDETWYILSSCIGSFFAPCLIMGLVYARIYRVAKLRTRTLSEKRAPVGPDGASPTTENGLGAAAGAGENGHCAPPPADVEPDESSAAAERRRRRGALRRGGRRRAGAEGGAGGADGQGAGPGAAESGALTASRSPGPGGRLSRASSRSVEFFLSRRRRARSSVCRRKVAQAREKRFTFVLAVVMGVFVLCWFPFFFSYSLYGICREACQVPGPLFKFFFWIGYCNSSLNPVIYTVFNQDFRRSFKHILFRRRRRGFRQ
It counts as functional.

The target in experiment [2] is T2, Muscarinic acetylcholine receptor M2 (Homo sapiens, UniProt P08172).
T2 sequence (P08172 whole entry): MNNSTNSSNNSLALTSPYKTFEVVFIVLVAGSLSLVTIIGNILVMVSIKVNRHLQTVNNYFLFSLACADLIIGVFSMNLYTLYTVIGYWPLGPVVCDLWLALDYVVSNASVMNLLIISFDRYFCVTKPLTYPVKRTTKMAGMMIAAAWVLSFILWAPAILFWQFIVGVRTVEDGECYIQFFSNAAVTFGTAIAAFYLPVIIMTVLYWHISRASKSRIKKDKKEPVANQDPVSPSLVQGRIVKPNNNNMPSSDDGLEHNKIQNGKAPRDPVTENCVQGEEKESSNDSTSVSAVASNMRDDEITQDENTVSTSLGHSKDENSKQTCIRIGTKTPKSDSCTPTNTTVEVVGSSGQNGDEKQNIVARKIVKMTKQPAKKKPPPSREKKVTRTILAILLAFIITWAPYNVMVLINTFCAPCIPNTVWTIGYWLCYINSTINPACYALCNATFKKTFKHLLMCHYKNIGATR
It counts as functional, cell-based.

In experiment [3] the target is Gamma-aminobutyric acid receptor subunit alpha-1 (Rattus norvegicus, UniProt P62813). It counts as functional.
Sequence of Gamma-aminobutyric acid receptor subunit alpha-1 (P62813 whole entry): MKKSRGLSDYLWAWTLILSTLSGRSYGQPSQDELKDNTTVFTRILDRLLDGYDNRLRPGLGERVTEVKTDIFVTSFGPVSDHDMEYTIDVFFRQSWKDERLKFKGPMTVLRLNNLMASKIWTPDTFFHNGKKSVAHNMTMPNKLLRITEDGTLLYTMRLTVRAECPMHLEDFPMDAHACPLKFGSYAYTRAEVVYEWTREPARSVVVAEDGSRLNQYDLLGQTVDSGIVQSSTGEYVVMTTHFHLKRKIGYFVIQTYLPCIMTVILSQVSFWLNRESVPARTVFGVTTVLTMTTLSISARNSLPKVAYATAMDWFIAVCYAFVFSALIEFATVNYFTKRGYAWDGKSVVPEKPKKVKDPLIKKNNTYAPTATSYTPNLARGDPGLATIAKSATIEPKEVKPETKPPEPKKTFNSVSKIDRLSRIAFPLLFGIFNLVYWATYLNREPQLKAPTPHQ
Experiment [4] concerns the target T3, 5-hydroxytryptamine receptor 1A (Homo sapiens, UniProt P08908).
T3 sequence (P08908 whole entry): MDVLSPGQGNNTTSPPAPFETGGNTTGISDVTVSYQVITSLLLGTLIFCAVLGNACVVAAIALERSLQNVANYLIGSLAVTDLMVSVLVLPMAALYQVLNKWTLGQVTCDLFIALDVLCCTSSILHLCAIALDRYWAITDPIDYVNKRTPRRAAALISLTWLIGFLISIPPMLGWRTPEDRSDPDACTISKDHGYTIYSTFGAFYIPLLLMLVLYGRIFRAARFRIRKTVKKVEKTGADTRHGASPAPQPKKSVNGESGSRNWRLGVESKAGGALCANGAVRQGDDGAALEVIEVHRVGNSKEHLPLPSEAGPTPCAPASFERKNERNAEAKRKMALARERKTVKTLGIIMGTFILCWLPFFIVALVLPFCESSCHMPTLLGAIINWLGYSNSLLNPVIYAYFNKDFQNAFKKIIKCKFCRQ
It counts as functional, cell-based.

Experiment [5] addresses T4, Neuropeptide Y receptor type 1 (Homo sapiens, UniProt P25929).
T4 sequence (P25929 whole entry): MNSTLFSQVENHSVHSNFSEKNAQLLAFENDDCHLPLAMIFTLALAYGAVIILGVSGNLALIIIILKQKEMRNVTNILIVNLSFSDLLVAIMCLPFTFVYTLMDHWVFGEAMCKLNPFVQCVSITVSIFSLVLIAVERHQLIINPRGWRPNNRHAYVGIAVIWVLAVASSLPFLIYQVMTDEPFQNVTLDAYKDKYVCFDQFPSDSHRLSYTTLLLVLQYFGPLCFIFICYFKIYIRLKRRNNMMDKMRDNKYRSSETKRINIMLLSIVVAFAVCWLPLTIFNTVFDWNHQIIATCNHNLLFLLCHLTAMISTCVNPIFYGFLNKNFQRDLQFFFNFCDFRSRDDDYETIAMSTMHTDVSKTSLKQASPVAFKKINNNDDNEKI
The note with it: read-out: AC50.

In experiment [6] the target is Sodium-dependent noradrenaline transporter (Homo sapiens, UniProt P23975).
Sequence of Sodium-dependent noradrenaline transporter (P23975 whole entry): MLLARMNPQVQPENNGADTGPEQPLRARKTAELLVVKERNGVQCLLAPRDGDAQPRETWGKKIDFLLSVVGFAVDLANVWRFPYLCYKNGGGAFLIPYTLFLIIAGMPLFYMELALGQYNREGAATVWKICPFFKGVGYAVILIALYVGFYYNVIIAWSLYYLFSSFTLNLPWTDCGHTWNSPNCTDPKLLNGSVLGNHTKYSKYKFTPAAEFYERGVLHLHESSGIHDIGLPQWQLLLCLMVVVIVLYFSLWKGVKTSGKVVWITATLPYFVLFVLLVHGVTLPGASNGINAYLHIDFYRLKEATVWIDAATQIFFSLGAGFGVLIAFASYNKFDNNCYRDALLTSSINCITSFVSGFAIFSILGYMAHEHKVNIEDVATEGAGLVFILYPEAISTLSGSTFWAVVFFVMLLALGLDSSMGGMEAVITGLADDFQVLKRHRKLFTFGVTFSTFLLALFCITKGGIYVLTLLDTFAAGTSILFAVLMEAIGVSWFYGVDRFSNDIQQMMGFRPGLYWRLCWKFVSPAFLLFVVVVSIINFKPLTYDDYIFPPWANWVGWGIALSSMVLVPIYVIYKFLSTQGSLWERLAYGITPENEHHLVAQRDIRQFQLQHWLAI
Experiment [7] deals with T5, Amine oxidase [flavin-containing] A (Homo sapiens, UniProt P21397).
T5 sequence (P21397 whole entry): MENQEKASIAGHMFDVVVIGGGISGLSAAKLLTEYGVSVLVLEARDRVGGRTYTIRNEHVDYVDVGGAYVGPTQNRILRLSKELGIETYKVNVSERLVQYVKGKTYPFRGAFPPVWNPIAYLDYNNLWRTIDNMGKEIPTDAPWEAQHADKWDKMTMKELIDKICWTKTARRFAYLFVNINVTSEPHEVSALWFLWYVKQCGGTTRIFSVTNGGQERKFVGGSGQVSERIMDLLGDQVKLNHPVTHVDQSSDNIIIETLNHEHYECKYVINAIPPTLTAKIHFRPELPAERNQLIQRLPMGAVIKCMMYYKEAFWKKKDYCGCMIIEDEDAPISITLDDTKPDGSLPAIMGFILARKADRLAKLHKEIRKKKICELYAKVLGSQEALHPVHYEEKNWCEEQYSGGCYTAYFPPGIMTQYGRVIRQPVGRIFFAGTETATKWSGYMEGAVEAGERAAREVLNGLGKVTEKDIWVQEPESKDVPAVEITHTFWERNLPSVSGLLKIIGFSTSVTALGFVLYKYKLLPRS
It counts as functional.
Note: assay procedure not described here.

Sequence of Melanocortin receptor 3 (P41968 whole entry): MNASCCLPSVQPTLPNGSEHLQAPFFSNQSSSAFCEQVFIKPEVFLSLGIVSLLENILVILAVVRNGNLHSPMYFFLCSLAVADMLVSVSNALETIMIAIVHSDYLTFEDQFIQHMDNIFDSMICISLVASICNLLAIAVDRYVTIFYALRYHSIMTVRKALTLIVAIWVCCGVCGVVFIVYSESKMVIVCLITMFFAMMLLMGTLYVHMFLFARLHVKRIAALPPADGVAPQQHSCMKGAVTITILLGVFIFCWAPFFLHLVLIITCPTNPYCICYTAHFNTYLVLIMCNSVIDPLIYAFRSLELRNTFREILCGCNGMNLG
Sequence of D(3) dopamine receptor (P35462 whole entry): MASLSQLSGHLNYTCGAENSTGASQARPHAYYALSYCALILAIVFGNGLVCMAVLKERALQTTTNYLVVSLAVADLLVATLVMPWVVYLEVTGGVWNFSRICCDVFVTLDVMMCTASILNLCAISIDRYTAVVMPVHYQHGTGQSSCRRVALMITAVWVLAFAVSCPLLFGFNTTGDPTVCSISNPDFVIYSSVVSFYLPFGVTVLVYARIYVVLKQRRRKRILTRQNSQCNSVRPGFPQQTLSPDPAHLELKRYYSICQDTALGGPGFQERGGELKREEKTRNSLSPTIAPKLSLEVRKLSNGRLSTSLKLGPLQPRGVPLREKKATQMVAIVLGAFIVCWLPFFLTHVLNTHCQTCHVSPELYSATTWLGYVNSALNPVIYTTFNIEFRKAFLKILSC
Sequence of Motilin receptor (O43193 whole entry): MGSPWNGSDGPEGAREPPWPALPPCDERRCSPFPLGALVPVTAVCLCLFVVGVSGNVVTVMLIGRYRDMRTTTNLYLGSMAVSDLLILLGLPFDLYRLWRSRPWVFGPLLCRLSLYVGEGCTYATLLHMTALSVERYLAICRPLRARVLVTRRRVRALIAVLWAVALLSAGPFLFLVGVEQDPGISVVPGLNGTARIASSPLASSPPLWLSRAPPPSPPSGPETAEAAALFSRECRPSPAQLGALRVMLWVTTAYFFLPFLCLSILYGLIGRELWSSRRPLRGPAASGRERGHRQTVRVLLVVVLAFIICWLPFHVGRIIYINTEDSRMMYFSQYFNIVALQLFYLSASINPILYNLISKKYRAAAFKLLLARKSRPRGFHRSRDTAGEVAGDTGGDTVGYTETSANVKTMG
Sequence of Vasopressin V2 receptor (P30518 whole entry): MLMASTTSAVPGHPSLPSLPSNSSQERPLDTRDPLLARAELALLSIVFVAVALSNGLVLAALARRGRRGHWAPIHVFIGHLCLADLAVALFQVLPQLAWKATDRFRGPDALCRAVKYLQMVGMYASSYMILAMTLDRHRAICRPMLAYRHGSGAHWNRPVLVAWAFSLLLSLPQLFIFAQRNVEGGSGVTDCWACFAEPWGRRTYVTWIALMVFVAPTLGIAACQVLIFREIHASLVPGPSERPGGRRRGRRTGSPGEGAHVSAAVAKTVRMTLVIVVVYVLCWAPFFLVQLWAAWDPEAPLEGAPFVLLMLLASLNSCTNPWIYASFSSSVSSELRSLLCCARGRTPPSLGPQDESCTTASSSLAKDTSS

`O=C1CN=C(c2ccccn2)c2cc(Br)ccc2N1` [BROMAZEPAM]: the AC50 (commonly the concentration at which the activity in the assay is half-maximal) is greater than 10 µM in experiment [1]; greater than 10 µM on Vasopressin V2 receptor; greater than 10 µM in experiment [2]; 0.11 µM in [3]; greater than 10 µM in experiment [4]; greater than 10 µM at Melanocortin receptor 3. In addition, the AC50 is greater than 10 µM on Motilin receptor; greater than 10 µM in experiment [5]; greater than 10 µM in [6]; greater than 10 µM in [7]; greater than 30 µM at D(3) dopamine receptor.
Take `Oc1ccc2c(c1)[C@@]13CCCC[C@@]1(O)[C@@H](C2)N(CC1CCC1)CC3` [BUTORPHANOL]: the AC50 (in experiment [1]; at Vasopressin V2 receptor; in [2]; in [3]; in [4]; at Melanocortin receptor 3) was greater than 30 µM throughout. Also, the AC50 (on Motilin receptor; in experiment [5]; in experiment [6]; in experiment [7]; on D(3) dopamine receptor) was greater than 30 µM each time.
For the molecule `C=C1/C(=C\C=C2/CCC[C@]3(C)[C@@H]([C@H](C)/C=C/[C@@H](O)C4CC4)CC[C@@H]23)C[C@@H](O)C[C@@H]1O` [CALCIPOTRIENE], the AC50 is greater than 30 µM in experiment [1]; greater than 30 µM on Vasopressin V2 receptor; greater than 30 µM in experiment [2]; greater than 30 µM in experiment [3]; 27 µM in experiment [4]; greater than 30 µM at Melanocortin receptor 3. Also, the AC50 on Motilin receptor was greater than 30 µM; in experiment [5] it was greater than 30 µM; in [6], 20 µM; in experiment [7], greater than 30 µM; at D(3) dopamine receptor it was greater than 30 µM.
On to `CCN(CC)C(=O)Nc1ccc(OCC(O)CNC(C)(C)C)c(C(C)=O)c1` (stereo unspecified) [CELIPROLOL], for which the half-maximal activity concentration (AC50) (in experiment [1]; on Vasopressin V2 receptor; in experiment [2]; in experiment [3]; in experiment [4]; on Melanocortin receptor 3) was greater than 30 µM in each case. The AC50 (at Motilin receptor; in experiment [5]; in experiment [6]; in experiment [7]; on D(3) dopamine receptor) was greater than 30 µM throughout.
For the molecule `C=C[C@@]1(C)CC(=O)[C@]2(O)[C@@]3(C)[C@@H](O)CCC(C)(C)[C@@H]3[C@H](O)[C@H](OC(C)=O)[C@@]2(C)O1` [COLFORSIN], the AC50 is greater than 30 µM in [1]; greater than 30 µM on Vasopressin V2 receptor; 1.9 µM in experiment [2]; greater than 30 µM in experiment [3]; greater than 30 µM in experiment [4]; greater than 30 µM at Melanocortin receptor 3. Further, the AC50 (at Motilin receptor; in [5]; in experiment [6]; in experiment [7]; at D(3) dopamine receptor) was greater than 30 µM in each case.
Regarding `CC(=O)[C@@]1(O)CC[C@H]2[C@@H]3C=C(Cl)C4=CC(=O)[C@@H]5C[C@@H]5[C@]4(C)[C@H]3CC[C@@]21C` [CYPROTERONE], the AC50 (in experiment [1]; at Vasopressin V2 receptor; in [2]; in [3]; in experiment [4]; at Melanocortin receptor 3) was greater than 10 µM throughout. Besides, the AC50 was greater than 10 µM at Motilin receptor; greater than 10 µM in experiment [5]; greater than 10 µM in experiment [6]; greater than 10 µM in [7]; greater than 30 µM at D(3) dopamine receptor.
As to `CC(=O)OCC(=O)[C@@]1(O)[C@H](C)C[C@H]2[C@@H]3CCC4=CC(=O)C=C[C@]4(C)[C@@]3(F)[C@@H](O)C[C@@]21C` [DEXAMETHASONE ACETATE], the AC50 in [1] was greater than 10 µM; at Vasopressin V2 receptor it was greater than 30 µM; in [2] it was greater than 10 µM; in experiment [3] it was greater than 10 µM; in experiment [4], greater than 10 µM; at Melanocortin receptor 3, greater than 30 µM. Also, the AC50 at Motilin receptor was greater than 10 µM; in experiment [5] it was greater than 30 µM; in experiment [6], greater than 30 µM; in [7] it was greater than 10 µM; on D(3) dopamine receptor, greater than 30 µM.
With `CCCCCCCCCCCCCCCCCCCCCC(=O)Nc1ccn([C@@H]2O[C@H](CO)[C@@H](O)[C@@H]2O)c(=O)n1` [ENOCITABINE], the AC50 (in [1]; on Vasopressin V2 receptor; in [2]; in experiment [3]; in experiment [4]; at Melanocortin receptor 3) was greater than 30 µM each time. Besides, the AC50 (at Motilin receptor; in [5]; in [6]; in experiment [7]; at D(3) dopamine receptor) was greater than 30 µM each time.
For the molecule `CCN(CC)CCN1C(=O)CN=C(c2ccccc2F)c2cc(Cl)ccc21` [FLURAZEPAM], the AC50 was greater than 10 µM in experiment [1]; greater than 30 µM at Vasopressin V2 receptor; greater than 10 µM in [2]; 0.0512 µM in [3]; greater than 30 µM in experiment [4]; greater than 30 µM at Melanocortin receptor 3. Also, the AC50 on Motilin receptor was greater than 10 µM; in [5] it was greater than 30 µM; in [6], greater than 30 µM; in experiment [7], greater than 10 µM; at D(3) dopamine receptor, 8.4 µM.
With `CCCCCC(=O)O[C@]1(C(C)=O)CC[C@H]2[C@@H]3CCC4=CC(=O)CC[C@]4(C)[C@H]3CC[C@@]21C` [HYDROXYPROGESTERONE CAPROATE], the AC50 (in [1]; at Vasopressin V2 receptor; in experiment [2]; in experiment [3]; in [4]; at Melanocortin receptor 3) was greater than 30 µM each time. The AC50 on Motilin receptor is 28.1 µM; in experiment [5], greater than 30 µM; in experiment [6], greater than 30 µM; in experiment [7], greater than 30 µM; on D(3) dopamine receptor, greater than 30 µM.
With `Nc1cc(-c2ccncc2)c[nH]c1=O` [INAMRINONE], the AC50 in experiment [1] was greater than 10 µM; at Vasopressin V2 receptor it was greater than 30 µM; in [2], greater than 10 µM; in [3] it was greater than 10 µM; in [4] it was greater than 10 µM; at Melanocortin receptor 3, greater than 30 µM. In addition, the AC50 on Motilin receptor is greater than 10 µM; in experiment [5] it was greater than 30 µM; in experiment [6], greater than 30 µM; in [7], greater than 10 µM; at D(3) dopamine receptor, greater than 30 µM.
